# PMC12396409, “Screening and hit evaluation of a microbial metabolite library against the pathogenic Plasmodium falciparum and Toxoplasma gondii parasites” (International Journal for Parasitology: Drugs and Drug …, 2025)
# Like-named read-outs stand apart in the source and are kept apart here.
# Legend:
# [1] = system: P. falciparum 3D7 parasites; experiment: P. falciparum growth inhibition assay, 2-cycle (120 h treatment), delayed-death screen and dose-response; assay type: cell-based, Plasmodium falciparum
# [2] = system: T. gondii RH strain (RH-Tub-eYFP) tachyzoites; experiment: microbe, parasite or virus in culture; assay type: cell-based, Toxoplasma gondii; details: 72 h, 72 h; for percent parasite growth at 2 µg/mL: Toxoplasma gondii
# [3] = system: P. falciparum 3D7 parasites; experiment: P. falciparum growth inhibition assay, 1-cycle (72 h treatment), SYBR DNA staining (library screen at 2 μg/mL and dose-response); assay type: cell-based, Plasmodium falciparum
# [4] = Plasmodium falciparum, 3D7, P. falciparum, 120 h, screen at 2 μg/mL, replicate 1, read-out: Pf_120h_%Growth_Rep1
# [5] = Plasmodium falciparum, 3D7, P. falciparum, 120 h, screen at 2 μg/mL, replicate 2, read-out: Pf_120h_%Growth_Rep2
# [6] = T. gondii, screen at 2 μg/mL, replicate 1, read-out: Tg_72h_%Growth_Rep1
# [7] = T. gondii, screen at 2 μg/mL, replicate 2, read-out: Tg_72h_%Growth_Rep2
# [8] = Plasmodium falciparum, 3D7, P. falciparum, 72 h, screen at 2 μg/mL, replicate 1, read-out: Pf_72h_%Growth_Rep1
# [9] = Plasmodium falciparum, 3D7, P. falciparum, 72 h, screen at 2 μg/mL, replicate 2, read-out: Pf_72h_%Growth_Rep2
# [10] = library screen at 2 μg/mL, % growth, replicate 1, read-out: Tg_72h_%Growth_Rep1
# [11] = library screen at 2 μg/mL, % growth, replicate 2, read-out: Tg_72h_%Growth_Rep2
structure (smiles),measurement,setting,value
CCCCCCCCCC(=O)N[C@@H](Cc1c[nH]c2ccccc12)C(=O)N[C@H](CC(N)=O)C(=O)N[C@@H](CC(=O)O)C(=O)N[C@@H]1C(=O)NCC(=O)N[C@@H](CCCN)C(=O)N[C@@H](CC(=O)O)C(=O)N[C@H](C)C(=O)N[C@@H](CC(=O)O)C(=O)NCC(=O)N[C@H](CO)C(=O)N[C@@H]([C@H](C)CC(=O)O)C(=O)N[C@@H](CC(=O)c2ccccc2N)C(=O)O[C@@H]1C [Daptomycin],activity at 2 µg/mL,[1]; [4],90.7%
same,activity at 2 µg/mL,[1]; [5],116%
same,percent parasite growth at 2 µg/mL,[2]; [6],132%
same,percent parasite growth at 2 µg/mL,[2]; [7],90.1%
same,activity at 2 µg/mL,[3]; [8],88.5%
same,activity at 2 µg/mL,[3]; [9],114%
"CCc1c(Cl)c(O)c(Cl)c(O)c1C(=O)O[C@H]1[C@H](O)[C@H](OC)[C@H](OC/C2=C\C=C\C[C@H](O)/C(C)=C/[C@H](CC)[C@@H](O[C@@H]3OC(C)(C)[C@@H](OC(=O)C(C)C)[C@H](O)[C@@H]3O)/C(C)=C/C(C)=C/C[C@@H]([C@@H](C)O)OC2=O)O[C@@H]1C [fidaxomicin, reference compound]",activity at 2 µg/mL,"[1]; Plasmodium falciparum, 3D7, library screen at 2 μg/mL, 120 h, % growth, replicate 1, read-out: Pf_120h_%Growth_Rep1",13.8%
same,activity at 2 µg/mL,"[1]; Plasmodium falciparum, 3D7, library screen at 2 μg/mL, 120 h, % growth, replicate 2, read-out: Pf_120h_%Growth_Rep2",-3.62%
same,percent parasite growth at 2 µg/mL,[2]; [10],85.9%
same,percent parasite growth at 2 µg/mL,[2]; [11],92.4%
same,activity at 2 µg/mL,"[3]; Plasmodium falciparum, 3D7, library screen at 2 μg/mL, 72 h, % growth, replicate 1, read-out: Pf_72h_%Growth_Rep1",3.04%
same,activity at 2 µg/mL,"[3]; Plasmodium falciparum, 3D7, library screen at 2 μg/mL, 72 h, % growth, replicate 2, read-out: Pf_72h_%Growth_Rep2",-1.42%
same,selectivity for P. falciparum in the screens,"[3]; active against the parasite at 2 μg/mL, no anti-tumour (NS-1) or cytotoxic (fibroblast) activity at 5 μg/mL",selective for P. falciparum
CO[C@H]1[C@@H](O)[C@@H](C)O[C@H](O[C@H]2[C@H](Oc3cccc4c(O)c5c(=O)oc6ccc(C)c7c(=O)oc(c34)c5c67)O[C@H](C)[C@H](O)[C@@H]2O)[C@@H]1O [Chartreusin],activity at 2 µg/mL,"[1]; Plasmodium falciparum, 3D7, 120 h, P. falciparum, 120 h, screen at 2 μg/mL, replicate 1, read-out: Pf_120h_%Growth_Rep1",144%
same,activity at 2 µg/mL,"[1]; Plasmodium falciparum, 3D7, 120 h, P. falciparum, 120 h, screen at 2 μg/mL, replicate 2, read-out: Pf_120h_%Growth_Rep2",96.8%
same,percent parasite growth at 2 µg/mL,[2]; [6],85.7%
same,percent parasite growth at 2 µg/mL,[2]; [7],97.4%
same,activity at 2 µg/mL,"[3]; Plasmodium falciparum, 3D7, 72 h, P. falciparum, 72 h, screen at 2 μg/mL, replicate 1, read-out: Pf_72h_%Growth_Rep1",101%
same,activity at 2 µg/mL,"[3]; Plasmodium falciparum, 3D7, 72 h, P. falciparum, 72 h, screen at 2 μg/mL, replicate 2, read-out: Pf_72h_%Growth_Rep2",88.7%
CC(/C=C/[C@H](O)[C@@H](C)/C=C/C(=O)O)=C\C[C@H]1O[C@]2(CC[C@@H]1C)CC[C@@](CCC(C)C)(OC(=O)CCC(=O)O)[C@H](/C=C/C(C)=C/C(=O)O)O2 [Reveromycin C],Pf_120h_%Growth_Rep1,"[1]; P. falciparum, 120 h, parasite screen 2 μg/mL, % growth, replicate 1",71.01%
same,Pf_120h_%Growth_Rep2,"[1]; P. falciparum, 120 h, parasite screen 2 μg/mL, % growth, replicate 2",60.10%
same,Tg_72h_%Growth_Rep1,"[2]; T. gondii, parasite screen 2 μg/mL, % growth, replicate 1",140.65%
same,Tg_72h_%Growth_Rep2,"[2]; T. gondii, parasite screen 2 μg/mL, % growth, replicate 2",73.99%
same,Pf_72h_%Growth_Rep1,"[3]; P. falciparum, 72 h, parasite screen 2 μg/mL, % growth, replicate 1",86.43%
same,Pf_72h_%Growth_Rep2,"[3]; P. falciparum, 72 h, parasite screen 2 μg/mL, % growth, replicate 2",70.33%
"CS(=O)(=O)c1ccc([C@@H](O)[C@@H](CO)NC(=O)C(Cl)Cl)cc1 [Thiamphenicol, reference compound]",3) Fold change (72 h/120 h),"[1]; P. falciparum, growth at 72 h / growth at 120 h, 2 μg/mL",2.5
same,activity at 2 µg/mL,"[1]; Plasmodium falciparum, 3D7; P. falciparum, 2 μg/mL, 120 h; read-out: 2) Growth (%) at 120 h",19.8%
same,activity at 2 µg/mL,[1]; [4],27.2%
same,activity at 2 µg/mL,[1]; [5],12.3%
same,percent parasite growth at 2 µg/mL,[2]; [6],106%
same,percent parasite growth at 2 µg/mL,[2]; [7],98%
same,activity at 2 µg/mL,"[3]; Plasmodium falciparum, 3D7; P. falciparum, 2 μg/mL, 72 h; read-out: 1) Growth (%) at 72 h",49.5%
same,activity at 2 µg/mL,[3]; [8],37.6%
same,activity at 2 µg/mL,[3]; [9],61.4%
CC[C@H](C)C(=O)O[C@H]1CCC=C2C=C[C@H](C)[C@H](CC[C@@H]3C[C@@H](O)CC(=O)O3)[C@H]21 [BIA-M1209],Pf_120h_%Growth_Rep1,"[1]; P. falciparum 3D7, 120 h, parasite screen at 2 μg/mL, % growth, replicate 1",88.69%
same,Pf_120h_%Growth_Rep2,"[1]; P. falciparum 3D7, 120 h, parasite screen at 2 μg/mL, % growth, replicate 2",112.58%
same,Tg_72h_%Growth_Rep1,"[2]; T. gondii, parasite screen at 2 μg/mL, % growth, replicate 1",113.16%
same,Tg_72h_%Growth_Rep2,"[2]; T. gondii, parasite screen at 2 μg/mL, % growth, replicate 2",83.90%
same,Pf_72h_%Growth_Rep1,"[3]; P. falciparum 3D7, 72 h, parasite screen at 2 μg/mL, % growth, replicate 1",86.39%
same,Pf_72h_%Growth_Rep2,"[3]; P. falciparum 3D7, 72 h, parasite screen at 2 μg/mL, % growth, replicate 2",121.47%
COc1c(Cl)c(O)c(Cl)c(C)c1C(=O)O[C@H]1[C@H](O)C[C@H](O[C@H]2[C@@H](O)CC(=O)O[C@@H]2C)O[C@@H]1C [Flambalactone],Pf_120h_%Growth_Rep1,"[1]; library screen at 2 μg/mL, 120 h, % growth, replicate 1",97.51%
same,Pf_120h_%Growth_Rep2,"[1]; library screen at 2 μg/mL, 120 h, % growth, replicate 2",89.66%
same,Tg_72h_%Growth_Rep1,"[2]; library screen at 2 μg/mL, % growth, replicate 1",143.45%
same,Tg_72h_%Growth_Rep2,"[2]; library screen at 2 μg/mL, % growth, replicate 2",100.30%
same,Pf_72h_%Growth_Rep1,"[3]; library screen at 2 μg/mL, 72 h, % growth, replicate 1",83.21%
same,Pf_72h_%Growth_Rep2,"[3]; library screen at 2 μg/mL, 72 h, % growth, replicate 2",82.63%
O=[N+]([O-])c1ncc[nH]1 [Azomycin],activity at 2 µg/mL,"[1]; Plasmodium falciparum, 3D7, 120 h, library screen at 2 μg/mL, 120 h, % growth, replicate 1, read-out: Pf_120h_%Growth_Rep1",147%
same,activity at 2 µg/mL,"[1]; Plasmodium falciparum, 3D7, 120 h, library screen at 2 μg/mL, 120 h, % growth, replicate 2, read-out: Pf_120h_%Growth_Rep2",91.9%
same,percent parasite growth at 2 µg/mL,[2]; [10],77.1%
same,percent parasite growth at 2 µg/mL,[2]; [11],71.1%
same,activity at 2 µg/mL,"[3]; Plasmodium falciparum, 3D7, 72 h, library screen at 2 μg/mL, 72 h, % growth, replicate 1, read-out: Pf_72h_%Growth_Rep1",83.2%
same,activity at 2 µg/mL,"[3]; Plasmodium falciparum, 3D7, 72 h, library screen at 2 μg/mL, 72 h, % growth, replicate 2, read-out: Pf_72h_%Growth_Rep2",88%
